Here are results for 1 compound from publication PMC4490744, “Protective effect of a Protein Epitope Mimetic CCR10 antagonist, POL7085, in a model of allergic eosinophilic airway inflammation” (Respiratory Research, 2015).

For experiment [1], the system named is OVA-sensitized and challenged Balb/c mice. In words: BAL total and differential cell counts, OVA model. It counts as in vivo, mouse. To be noted: 24 h after last challenge, POL7085 15 mg/kg or DEX 1 mg/kg i.n. once daily 1 h before challenge, p < 0.001. The protocol:
(§1) Bronchoalveolar lavage (BAL) was performed 24 h after the last OVA challenge as previously described. Mice were anaesthetized i.p. (ketamine 150 mg/kg, xylazine 10 mg/kg). A plastic cannula was inserted in the exposed trachea, and airways were washed with 0.5 mL of 0.9 % NaCl (saline) injected with a 1 mL syringe. This procedure was performed ten times. The initial concentrated supernatant of the two first lavages (2 × 0.5 mL administered, approx. 0.5 mL recovered) was collected for cytokine measurements. The remainder of the BALF was centrifuged (600 g for 5 min, 4 °C), and cell pellets pooled. After lysis of erythrocytes with distilled water followed by osmotic re-equilibration and centrifugation, the cell pellet was suspended in 500 μL of saline and total cell counted on a haemocytometer chamber (Neubauer, PRECISS®). Cells were cytocentrifuged at 700 rpm for 10 min (Cytospin 4, Thermo Fischer Scientific), and stained with Diff-Quick® (Merck) for differential cell counts performed on at least 400 cells.

For experiment [2] the test system is unchanged. In words: BAL cytokines by ELISA, OVA model. It counts as in vivo, mouse. To be noted: 24 h after last challenge. The protocol: as §1, with “Cells were cytocentrifuged at 700 rpm for 10 min (Cytospin 4, Thermo Fischer Scientific), and stained with Diff-Quick® (Merck) for differential cell counts performed on at least 400 cells.” left out
(§2) IL-5, IFN-γ (BD Pharmingen), CCL28 (R&D system) ELISA kits and Th17 Milliplex® (Millipore) were used according to the manufacturer’s instructions. For BALF recovered 24 h after the last OVA challenge, IL-5 and IFN-γ were quantified by ELISA. For lung homogenate, concentrations of IL-4, IL-5, IL-13, IL-17a and IL-17f were quantified by Milliplex® in the supernatants obtained after lung tissue was homogenised with an UltraTurax® and centrifuged at 10,000 g for 10 min at 4 °C.
(In general: ELISA stands for enzyme-linked immunosorbent assay.)

The test system is the same in experiment [3]. The experiment can be described thus: Lung homogenate cytokines by Milliplex, OVA model. It counts as in vivo, mouse. The conditions noted are these: POL7085 7.5 and 15 mg/kg or DEX 1 mg/kg i.n. The procedure: as §2
Experiment [4] has the same test system. In words: Plasma OVA-specific IgE by ELISA, OVA model. It counts as in vivo, mouse. To be noted: D22, ELISA. The protocol:
Plasma IgE levels were determined by ELISA. Microtiter plates were coated overnight at 4 °C with the capture antibody, anti-mouse IgE at 2 μg/well in carbonate buffer, pH 9.5 (BD Pharmingen, clone R35-118).

For experiment [5] the test system is unchanged. The experiment can be described thus: Lung tissue CCL28 by ELISA, OVA model. It counts as in vivo, mouse. To be noted: POL7085 p < 0.05. The procedure: as §2
For experiment [6] the test system is unchanged. In words: Lung CCR3 mRNA by RT-qPCR, OVA model. It counts as in vivo, mouse. To be noted: 2^ΔΔCt, not significant. The procedure:
All procedures were performed according to the manufacturer’s instructions. Lung tissue was homogenised in a Fastprep®, and total RNA extracted with Tri-Reagent® (1 mL/left lung; Euromedex) and purified with mini RNeasy® Kit (Qiagen). RNA pellets were suspended in nuclease-free water (DEPC). RNA concentration and quality were determined in each preparation with a Nanodrop® spectrophotometer.
Reverse transcription was performed on 10 μg/mL of total RNA by the High Capacity cDNA Archive kit® (Life Technologies™) for 10 min at 25 °C and 2 h at 37 °C, and cDNAs were stored at −80 °C until use. Quantitative PCR was performed by real-time fluorescent PCR with TaqMan® Gene Expression Assay in 96 well plate format (Life Technologies™, ABI7000) using TaqMan® Gene Expression Assay primers (Life Technologies™ for HPRT1 (Mm01545399_m1), CCR10 (Mm01292449_m1), CCL28 (Mm00445039_m1) and CCR3 (Mm00515543_s1). To analyse the low expression of CCR10, CCL28 and CCR3, a preamplification was performed with TaqMan® PreAmp Master Mix (Life Technologies™) and TaqMan® Gene Expression Assay (10 min at 95 °C followed by 14 cycles: 15 s at 95 °C and 4 min at 60 °C). Preamplified cDNAs were stored at −80 °C until use and diluted 1/20 with 1X TE buffer for use. […]
A general note: Real-time PCR tracks product formation cycle by cycle.

The test system is the same in experiment [7]. The experiment can be described thus: Colorimetric assay of lung mucus, OVA model. It counts as in vivo, mouse. The procedure:
Mucus was measured in lung homogenate by a mucus colorimetric assay: 100 μL samples were mixed with 20 μL acid mucus reagent (0.2 % periodic acid) incubated for 1 h at 37 °C, then 20 μL mucus dye reagent (pararosaniline 1 %, 10 N hydrochloric acid 1 %) was added and samples were incubated for a further 30 min at 37 °C, before optical density measurement at 555 nm.

Experiment [8] shares this test system. In words: Airway responsiveness to methacholine, whole body barometric plethysmography. It counts as in vivo, mouse. The conditions noted are these: DEX 1 mg/kg i.n., p < 0.001. The procedure: Airway responsiveness to aerosolized methacholine (MCh; Sigma-Aldrich, A2251) was measured in conscious mice on day 22 (24 h after the last OVA challenge) by whole body barometric plethysmography (Emka Technologies). Mice were acclimatized in the plethysmograph chamber for 30 min until a stable baseline was obtained, and then exposed to aerosolized saline for 30 s as a control. Mice were then challenged every 20 min with aerosolized MCh at increasing concentrations (0.05, 0.1, 0.2 and 0.3 M) for 30 s, and the enhanced pause (PenH) was recorded for 5 min and used as an index of airway obstruction.

Experiment [9] shares this test system. The experiment can be described thus: Lung histology (haematoxylin-eosin), OVA model. It counts as in vivo, mouse. To be noted: POL7085 15 mg/kg or DEX 1 mg/kg i.n. The protocol:
Lung tissues were fixed in 4 % paraformaldehyde and paraffin-embedded. 6 μm sections were cut, mounted on Superfrost glass slides (Fischer Scientific) and stained with haematoxylin-eosin for light microscopy morphological analysis or periodic acid-Schiff (PAS) staining to determine the extent of mucus production. The area of epithelial cells containing the mucus were measured and expressed relative to the total bronchus perimeter.

The test system is the same in experiment [10]. In words: Immunohistochemistry of CCR10 in the lung, OVA model. It counts as in vivo, mouse. To be noted: CCR10 immunolabelling. The procedure:
Sections (3 μm) of lung tissue were cut, mounted, placed in Sequenza® immunostaining with Coverplate™ (Thermo Scientific Shandon), and antigen retrieval was performed with proteinase K in Tris-EDTA buffer (pH 8; Fluka) for 35 min at 37 °C. The endogenous enzyme was blocked with Dual Endogenous Enzyme Block (Dako Cytomation) and slides were incubated overnight at 4 °C with the primary antibody 1/1000 (goat anti-mouse CCR10 antibody; Capralogics), followed by 30 min at RT with the secondary rabbit anti-goat antibody (Vector) and 30 min at RT with extravidin peroxidase (Sigma-Aldrich).

For experiment [11] the test system is unchanged. The experiment can be described thus: Colorimetric assay of lung collagen, OVA model. To be noted: lung homogenate, POL7085 p < 0.05, DEX 1 mg/kg p < 0.001.

Each structure is given as a SMILES string.

For the compound `C[C@@H]1C[C@H]2[C@@H]3CCC4=CC(=O)C=C[C@]4(C)[C@@]3(F)[C@@H](O)C[C@]2(C)[C@@]1(O)C(=O)CO` [DEX, dexamethasone], in experiment [1], the “inhibition of BAL eosinophil recruitment” value turned out to be 87%, the “inhibition of BAL lymphocyte recruitment” value is reported as 86% and the “inhibition of BAL neutrophil recruitment” value is on record as 90%. Also, the “effect on IL-5 level in BAL” value in experiment [2] was “significantly decreased”. Moreover, the “effect on levels of IL-4, IL-5 and IL-13 in lung homogenate” value in experiment [3] is reported as “significantly decreased”. For the same compound, the “effect on plasma OVA-specific IgE levels” value in experiment [4] was “a slight decrease, although non significant”. In experiment [5], the “effect on lung CCL28 concentration” value was “had no effect on CCL28 levels”. For the same compound, the “reduction of OVA-induced lung CCR3 mRNA expression” value in experiment [6] was 45%. Moreover, the “effect on lung mucus (colorimetric assay, lung homogenate)” value in experiment [7] was “trend towards reduction of mucus levels (ns)”. Moreover, the “effect on airway responses to MCh” value in [8] is “significantly decreased airway responses to MCh”. Further, the “effect on peribronchial and perivascular inflammatory cell infiltrates in lung” value in experiment [9] is “substantial reduction of these cellular infiltrates”. For the same compound, in experiment [10], the “infiltrating inflammatory cells expressing CCR10” value is reported as “clearly reduced”. For the same compound, the “reduction of lung collagen levels” value in [11] was found to be 64%.
